Measurements as given in PubChem BioAssay AID1963840 (Molecular Pharmacology Branch, DTP, NCI, 2024).

Tested on: 695427-040-R-J1-PDC complex spheroid viability
Assay: Anticancer human tumor 695427-040-R-J1-PDC patient-derived colon adenocarcinoma cell line growth inhibition [POLQ]
Conditions: for IC50: curve of first compound; for viability, T/C: stronger effect = lower value
How it was run: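 Complex spheroid viability model combining PDC tumour cells with endothelial (HUVEC) and MSC stromal cells. Novobiocin, ART-558 or RP6685 were tested singly and in combination with standard and investigational anticancer drugs. Each was titrated in half-log steps from near clinical Cmax, or from 10 microM where Cmax was unknown.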

[1] = second compound 0.0316 µM, first compound 0.0316 µM
[2] = second compound 0.0316 µM, first compound 0.1 µM
[3] = second compound 0.0316 µM, first compound 0.316 µM
[4] = second compound 0.0316 µM, first compound 1 µM
[5] = second compound 0.0316 µM, first compound 3.16 µM
[6] = second compound 0.0316 µM, first compound 10 µM
[7] = second compound 0.1 µM, first compound 0.0316 µM
[8] = second compound 0.1 µM, first compound 0.1 µM
[9] = second compound 0.1 µM, first compound 0.316 µM
[10] = second compound 0.1 µM, first compound 1 µM
[11] = second compound 0.1 µM, first compound 3.16 µM
[12] = second compound 0.1 µM, first compound 10 µM
[13] = second compound 0.316 µM, first compound 0.0316 µM
[14] = second compound 0.316 µM, first compound 0.1 µM
[15] = second compound 0.316 µM, first compound 0.316 µM
[16] = second compound 0.316 µM, first compound 1 µM
[17] = second compound 0.316 µM, first compound 3.16 µM
[18] = second compound 0.316 µM, first compound 10 µM
[19] = second compound 1 µM, first compound 0.0316 µM
[20] = second compound 1 µM, first compound 0.1 µM
[21] = second compound 1 µM, first compound 0.316 µM
[22] = second compound 1 µM, first compound 1 µM
[23] = second compound 1 µM, first compound 3.16 µM
[24] = second compound 1 µM, first compound 10 µM
[25] = second compound 3.16 µM, first compound 0.0316 µM
[26] = second compound 3.16 µM, first compound 0.1 µM
[27] = second compound 3.16 µM, first compound 0.316 µM
[28] = second compound 3.16 µM, first compound 1 µM
[29] = second compound 3.16 µM, first compound 3.16 µM
[30] = second compound 3.16 µM, first compound 10 µM
[31] = second compound 10 µM, first compound 0.0316 µM
[32] = second compound 10 µM, first compound 0.1 µM
[33] = second compound 10 µM, first compound 0.316 µM
[34] = second compound 10 µM, first compound 1 µM
[35] = second compound 10 µM, first compound 3.16 µM
[36] = second compound 10 µM, first compound 10 µM
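Also: spheroids exposed to compounds for seven days.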
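For viability, T/C in this document: 100% = DMSO vehicle control viability.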

Question: How did the IC50 (second compound 0.0316 µM) turn out when `C#Cc1c(F)ccc2cc(O)cc(-c3ncc4c(N5CC6CCC(C5)N6)nc(OCC56CCCN5CC(F)C6)nc4c3F)c12` (stereo unspecified) + COC1C(OC(N)=O)C(O)C(Oc2ccc3c(O)c(NC(=O)c4ccc(O)c(CC=C(C)C)c4)c(=O)oc3c2C)OC1(C)C was run?
Answer: > 10 µM

Question: What about the IC50 (second compound 0.1 µM) of the same compound?
Answer: > 10 µM

Question: And the IC50 (second compound 0.316 µM)?
Answer: > 10 µM

Question: What about the IC50 (second compound 1 µM) of the same compound?
Answer: > 10 µM

Question: What about the IC50 (second compound 3.16 µM) of the same compound?
Answer: > 10 µM

Question: What about the IC50 (second compound 10 µM) of the same compound?
Answer: > 10 µM

Question: What about the viability, T/C [1] of the same compound?
Answer: 113%

Question: What about the viability, T/C [2] of the same compound?
Answer: 99.8%

Question: And the viability, T/C [3]?
Answer: 108%

Question: What about the viability, T/C [4] of the same compound?
Answer: 107%

Question: And the viability, T/C [5]?
Answer: 97.3%

Question: What about the viability, T/C [6] of the same compound?
Answer: 96.5%

Question: What about the viability, T/C [7] of the same compound?
Answer: 110%

Question: And the viability, T/C [8]?
Answer: 97.6%

Question: And the viability, T/C [9]?
Answer: 105%

Question: What about the viability, T/C [10] of the same compound?
Answer: 99.9%

Question: And the viability, T/C [11]?
Answer: 102%

Question: What about the viability, T/C [12] of the same compound?
Answer: 84.7%

Question: What about the viability, T/C [13] of the same compound?
Answer: 107%

Question: And the viability, T/C [14]?
Answer: 101%

Question: And the viability, T/C [15]?
Answer: 98.2%

Question: And the viability, T/C [16]?
Answer: 99.2%

Question: And the viability, T/C [17]?
Answer: 95%

Question: What about the viability, T/C [18] of the same compound?
Answer: 90%

Question: And the viability, T/C [19]?
Answer: 101%

Question: And the viability, T/C [20]?
Answer: 97.9%

Question: And the viability, T/C [21]?
Answer: 108%

Question: And the viability, T/C [22]?
Answer: 97.1%

Question: And the viability, T/C [23]?
Answer: 97.1%

Question: And the viability, T/C [24]?
Answer: 91%

Question: And the viability, T/C [25]?
Answer: 105%

Question: What about the viability, T/C [26] of the same compound?
Answer: 109%

Question: What about the viability, T/C [27] of the same compound?
Answer: 98.7%

Question: And the viability, T/C [28]?
Answer: 94.8%

Question: And the viability, T/C [29]?
Answer: 104%

Question: And the viability, T/C [30]?
Answer: 90.7%

Question: And the viability, T/C [31]?
Answer: 107%

Question: What about the viability, T/C [32] of the same compound?
Answer: 104%

Question: And the viability, T/C [33]?
Answer: 104%

Question: And the viability, T/C [34]?
Answer: 95.6%

Question: And the viability, T/C [35]?
Answer: 101%

Question: What about the viability, T/C [36] of the same compound?
Answer: 80.4%

Question: For `C=CC(=O)N1CCN(c2nc(=O)n(-c3c(C)ccnc3C(C)C)c3nc(-c4c(O)cccc4F)c(F)cc23)C(C)C1` (stereo unspecified) + COC1C(OC(N)=O)C(O)C(Oc2ccc3c(O)c(NC(=O)c4ccc(O)c(CC=C(C)C)c4)c(=O)oc3c2C)OC1(C)C, which IC50 (second compound 0.0316 µM) is on record?
Answer: > 10 µM

Question: And the IC50 (second compound 0.1 µM)?
Answer: > 10 µM

Question: And the IC50 (second compound 0.316 µM)?
Answer: > 10 µM

Question: And the IC50 (second compound 1 µM)?
Answer: > 10 µM

Question: And the IC50 (second compound 3.16 µM)?
Answer: > 10 µM

Question: And the IC50 (second compound 10 µM)?
Answer: > 10 µM

Question: And the viability, T/C [1]?
Answer: 99.8%

Question: What about the viability, T/C [2] of the same compound?
Answer: 94.9%

Question: What about the viability, T/C [3] of the same compound?
Answer: 97.9%

Question: And the viability, T/C [4]?
Answer: 106%

Question: And the viability, T/C [5]?
Answer: 113%

Question: What about the viability, T/C [6] of the same compound?
Answer: 105%

Question: And the viability, T/C [7]?
Answer: 104%

Question: And the viability, T/C [8]?
Answer: 102%

Question: And the viability, T/C [9]?
Answer: 106%

Question: And the viability, T/C [10]?
Answer: 111%

Question: And the viability, T/C [11]?
Answer: 118%

Question: And the viability, T/C [12]?
Answer: 122%

Question: And the viability, T/C [13]?
Answer: 106%

Question: And the viability, T/C [14]?
Answer: 101%

Question: What about the viability, T/C [15] of the same compound?
Answer: 102%

Question: What about the viability, T/C [16] of the same compound?
Answer: 116%

Question: And the viability, T/C [17]?
Answer: 112%

Question: What about the viability, T/C [18] of the same compound?
Answer: 107%

Question: And the viability, T/C [19]?
Answer: 109%

Question: And the viability, T/C [20]?
Answer: 102%

Question: What about the viability, T/C [21] of the same compound?
Answer: 105%

Question: And the viability, T/C [22]?
Answer: 110%

Question: And the viability, T/C [23]?
Answer: 119%

Question: What about the viability, T/C [24] of the same compound?
Answer: 117%

Question: What about the viability, T/C [25] of the same compound?
Answer: 103%

Question: What about the viability, T/C [26] of the same compound?
Answer: 109%

Question: What about the viability, T/C [27] of the same compound?
Answer: 100%

Question: And the viability, T/C [28]?
Answer: 107%

Question: What about the viability, T/C [29] of the same compound?
Answer: 125%

Question: What about the viability, T/C [30] of the same compound?
Answer: 107%

Question: And the viability, T/C [31]?
Answer: 111%

Question: And the viability, T/C [32]?
Answer: 92.7%

Question: What about the viability, T/C [33] of the same compound?
Answer: 104%

Question: What about the viability, T/C [34] of the same compound?
Answer: 109%

Question: And the viability, T/C [35]?
Answer: 113%

Question: And the viability, T/C [36]?
Answer: 114%

Question: With `CC(C)n1c(=O)n(C)c2cnc3cc(F)c(-c4ccc(OCCCN5CCCCC5)nc4)cc3c21` + COC1C(OC(N)=O)C(O)C(Oc2ccc3c(O)c(NC(=O)c4ccc(O)c(CC=C(C)C)c4)c(=O)oc3c2C)OC1(C)C as the compound, how does the IC50 (second compound 0.0316 µM) read?
Answer: > 10 µM

Question: What about the IC50 (second compound 0.1 µM) of the same compound?
Answer: > 10 µM

Question: And the IC50 (second compound 0.316 µM)?
Answer: > 10 µM

Question: What about the IC50 (second compound 1 µM) of the same compound?
Answer: > 10 µM

Question: And the IC50 (second compound 3.16 µM)?
Answer: > 10 µM

Question: And the IC50 (second compound 10 µM)?
Answer: > 10 µM

Question: What about the viability, T/C [1] of the same compound?
Answer: 99.3%

Question: What about the viability, T/C [2] of the same compound?
Answer: 98.7%

Question: And the viability, T/C [3]?
Answer: 109%

Question: And the viability, T/C [4]?
Answer: 113%

Question: And the viability, T/C [5]?
Answer: 110%

Question: And the viability, T/C [6]?
Answer: 82.6%

Question: What about the viability, T/C [7] of the same compound?
Answer: 114%

Question: And the viability, T/C [8]?
Answer: 101%

Question: What about the viability, T/C [9] of the same compound?
Answer: 112%

Question: What about the viability, T/C [10] of the same compound?
Answer: 118%

Question: What about the viability, T/C [11] of the same compound?
Answer: 101%

Question: And the viability, T/C [12]?
Answer: 80.1%

Question: And the viability, T/C [13]?
Answer: 111%

Question: What about the viability, T/C [14] of the same compound?
Answer: 103%

Question: What about the viability, T/C [15] of the same compound?
Answer: 110%

Question: What about the viability, T/C [16] of the same compound?
Answer: 101%

Question: What about the viability, T/C [17] of the same compound?
Answer: 114%

Question: What about the viability, T/C [18] of the same compound?
Answer: 74.4%

Question: And the viability, T/C [19]?
Answer: 110%

Question: And the viability, T/C [20]?
Answer: 104%

Question: What about the viability, T/C [21] of the same compound?
Answer: 108%

Question: And the viability, T/C [22]?
Answer: 112%

Question: And the viability, T/C [23]?
Answer: 105%

Question: And the viability, T/C [24]?
Answer: 77.2%

Question: And the viability, T/C [25]?
Answer: 106%

Question: What about the viability, T/C [26] of the same compound?
Answer: 102%

Question: And the viability, T/C [27]?
Answer: 103%

Question: What about the viability, T/C [28] of the same compound?
Answer: 109%

Question: What about the viability, T/C [29] of the same compound?
Answer: 102%

Question: What about the viability, T/C [30] of the same compound?
Answer: 79%

Question: And the viability, T/C [31]?
Answer: 106%

Question: And the viability, T/C [32]?
Answer: 99.5%

Question: And the viability, T/C [33]?
Answer: 110%

Question: What about the viability, T/C [34] of the same compound?
Answer: 113%

Question: And the viability, T/C [35]?
Answer: 114%

Question: And the viability, T/C [36]?
Answer: 77.6%
